biological target: Acetyl-coenzyme A synthetase, cytoplasmic (Homo sapiens, UniProt Q9NR19); assay: Inhibition of ACSS2 in human MDA-MB-468 cells assessed as 13C-acetate incorporation incubated for 5 hrs measured under hypoxic conditions by LCMS analysis; format: cell-based
Sequence (Q9NR19 whole entry): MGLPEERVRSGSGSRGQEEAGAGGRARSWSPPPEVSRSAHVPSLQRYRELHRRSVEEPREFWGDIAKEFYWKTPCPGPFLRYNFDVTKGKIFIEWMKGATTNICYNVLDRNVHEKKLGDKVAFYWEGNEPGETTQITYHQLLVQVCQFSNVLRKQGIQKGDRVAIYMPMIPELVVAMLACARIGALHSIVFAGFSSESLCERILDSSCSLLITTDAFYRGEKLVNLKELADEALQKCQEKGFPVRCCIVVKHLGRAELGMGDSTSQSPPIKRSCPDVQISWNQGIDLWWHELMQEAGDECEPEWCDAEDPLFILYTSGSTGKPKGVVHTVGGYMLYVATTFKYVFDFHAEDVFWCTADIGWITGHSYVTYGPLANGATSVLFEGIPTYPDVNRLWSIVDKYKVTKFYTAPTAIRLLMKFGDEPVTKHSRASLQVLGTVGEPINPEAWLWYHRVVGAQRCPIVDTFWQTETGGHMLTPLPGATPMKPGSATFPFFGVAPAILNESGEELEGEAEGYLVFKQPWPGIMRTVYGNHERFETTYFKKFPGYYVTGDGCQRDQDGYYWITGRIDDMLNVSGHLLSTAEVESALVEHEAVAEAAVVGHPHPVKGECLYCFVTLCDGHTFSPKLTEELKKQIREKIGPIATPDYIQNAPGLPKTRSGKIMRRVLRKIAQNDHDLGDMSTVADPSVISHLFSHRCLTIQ

IC50 [nM] | Compound
5 | COc1ccc(N2N=C(C)C(C(=O)Nc3cccc(C(C)(F)F)c3)C2=O)cn1 (stereo unspecified)
0.463 | CCC(F)(F)c1cccc(NC(=O)C2C(=O)N(c3ccc(OC)cc3)N=C2C)c1 (stereo unspecified)
4 | CC1=NN(c2ccccc2)C(=O)C1C(=O)Nc1cccc(C(C)(F)F)c1 (stereo unspecified)
1.1 | COc1ccc(N2N=C(C)C(C(=O)Nc3cccc(C(C)(F)F)c3)C2=O)cc1-c1ncco1 (stereo unspecified)
1 | COc1ccc(N2N=C(C)C(C(=O)Nc3cccc(C(C)(F)F)c3)C2=O)cc1OC (stereo unspecified)
4.5 | COc1ccc(N2N=C(C)C(C(=O)Nc3cccc(C(C)(F)F)c3)C2=O)cc1 (stereo unspecified)
2.66 | CC1=NN(c2ccc(OC(F)F)cc2)C(=O)C1C(=O)Nc1cccc(C(C)(F)F)c1 (stereo unspecified)

The next lines start with the compound.

Compound | IC50 [nM]
COC(=O)c1cccc(N2N=C(C)C(C(=O)Nc3cccc(-c4ccco4)c3)C2=O)c1 (stereo unspecified) | 2.1
COc1ccc(N2N=C(C)C(C(=O)Nc3cccc(-c4ccco4)c3)C2=O)cn1 (stereo unspecified) | 3.9
COc1ccc(N2N=C(C)C(C(=O)Nc3cccc(-c4ccco4)c3)C2=O)cc1 (stereo unspecified) | 3.2
CC1=NN(c2ccc(OC(F)F)c(-c3cccnc3)c2)C(=O)C1C(=O)Nc1cccc(C(C)(F)F)c1 (stereo unspecified) | 0.33

— ChEMBL document CHEMBL4364328, “Inhibition of ACSS2 for Treatment of Cancer and Neuropsychiatric Diseases” (ACS Med Chem Lett, 2019)
